{
  "source": "patent US20130156932A1",
  "about": "“Method of increasing the milk and/or meat quantity of silage-fed animals” (BASF SE, priority 2007, published 2013)",
  "format_in_all_cases": "in vivo, Zea mays (maize)",
  "key": {"corn [1]": {"test_system": "corn", "experiment": "Corn silage strip trials New York 2006: NIRS forage quality and MILK 2006 calculated milk production", "settings": "New York 2006, pyraclostrobin vs untreated", "description": "(§1) Field trials were conducted as strip trials in farm fields in 2006 and 2008. A part of the field was treated with pyraclostrobin applied as Headline® whereas another part was left untreated. Headline® was applied at tassel emergence with 0.44 L/ha (110 g pyraclostrobin per ha) by aerial or ground application with a high clearance sprayer. Total spray volume was 93.5 to 187 L/ha for ground application and 18.7 to 46.7 L/ha for aerial application, respectively. Water was used as a carrier to prepare the spray mixture.\n(§2) Trials were harvested using a commercial forage harvester when the corn crop reached a dry matter content of about 30 to 40%. The treated and untreated area of the field was harvested separately to gain total biomass yield (ton/acre). Subsequently, the harvested plant material was used for producing silage.\n(§3) Forage samples from the harvested plants were taken from both the treated and untreated areas of the field. Samples were taken from the harvested material in the forage wagon following chopping with the commercial harvester. Multiple forage samples were taken for each of both treatments manually during harvesting in each of the trials, mixed in a larger container, and a subsample of 1.3 to 2.25 kg was taken. The subsamples were placed in plastic bags, sealed, cooled, and shipped immediately to Agsource Soil and Forage Laboratory, 106 North Cecil Street, Bonduel Wis. […]"}, "corn [2]": {"test_system": "corn", "experiment": "Corn silage strip trials Wisconsin 2006: NIRS forage quality and MILK 2006 calculated milk production", "description": "as §1, §2\n(§4) Forage samples from the harvested plants were taken from both the treated and untreated areas of the field. Samples were taken from the harvested material in the forage wagon following chopping with the commercial harvester. Multiple forage samples were taken for each of both treatments manually during harvesting in each of the trials, mixed in a larger container, and a subsample of 1.3 to 2.25 kg was taken. The subsamples were placed in plastic bags, sealed, cooled, and shipped immediately to Agsource Soil and Forage Laboratory, 106 North Cecil Street, Bonduel Wis. 54107, USA for Near Infrared Reflectance Spectroscopy (NIRS) analysis.\nTypically, samples for NIRS analysis are first dried at 55 to 65° C. for 24 h to 48 h prior to analysis. A representative subsample thereof is then dried at 105° C. for another 12 h to 24 h to evaluate the dry matter content of the samples. Subsequently, the remaining sample is grinded and homogenized and again a representative subsample is used for the NIRS analysis. The NIRS analysis procedure uses a commercially available calibration to estimate the values for each quality parameter based on the spectral reflectance information gained. […]"}, "corn hybrid varieties": {"test_system": "corn hybrid varieties", "experiment": "Field trial Wisconsin 2008 with eight corn hybrids: calculated milk production per ton of harvested biomass", "description": "as §1, §2, §3"}, "corn [3]": {"test_system": "corn", "experiment": "Corn silage strip trials Maryland 2006: NIRS forage quality and MILK 2006 calculated milk production", "description": "as §1, §2, §4\nTypically, samples for NIRS analysis are first dried at 55 to 65° C. for 24 h to 48 h prior to analysis. A representative subsample thereof is then dried at 105° C. for another 12 h to 24 h to evaluate the dry matter content of the samples. Subsequently, the remaining sample is grinded and homogenized and again a representative subsample is used for the NIRS analysis. The NIRS analysis procedure uses a commercially available calibration to estimate the values for each quality parameter based on the spectral reflectance information gained. The calibrations are based on the near infra red reflectance spectra of samples with known quality data. The comparison of the spectra of the samples with unknown quality data with the spectra of the known samples allows calculating estimates for each quality parameter of interest.\nNIRS analysis provided dry matter, crude protein, Acid Detergent Fibre (ADF), Neutral Detergent Fibre (NDF), and starch data. Calculations were included for moisture, adjusted crude protein, Total Digestible Nutrients (TDN), Net Energy for Lactation (NEL), Net Energy for Gain (NEG) and protein solubility.\nThe information was then entered into the MILK 2006 University of Wisconsin Corn Silage evaluation system. Calculations of the milk production, energy content and digestibility per ton of corn biomass were carried out using a calculation method described in:\na) Schwab, E. C., and R. D. Shaver. 2001: “Evaluation of corn silage nutritive value using MILK2000” (pages 21-24) in Proc. of 25th Forage Production and Use Symposium. WI Forage Council Annual Mtg. Eau Claire, Wis.\nb) Schwab, E. C., R. D. Shaver. J. G. Lauer, and J. G. Coors. 2003: “Estimating silage energy value and milk yield to rank corn hybrids”. J. Anim. Feed Sci. Technol. 109: 1-18. as well as in\nc) Undersander, D. J., W. T. Howard, and R. D. Shaver. 1993: “Milk per acre spreadsheet for combining yield and quality into a single term”. J. Prod. Ag. 6: 231 235.\nIn 2006 a total of 16 strip trials were conducted in Queen Ann County, Md. Trial setup, treatments, application, harvesting, sampling and quality analysis including calculation of milk production per ton and per acre followed the procedure described before."}, "[4]": {"settings": "Wisconsin 2006, pyraclostrobin vs untreated"}, "[5]": {"settings": "Maryland 2006, pyraclostrobin vs untreated"}},
  "data": [
    {"compound": "COC(=O)N(OC)c1ccccc1COc1ccn(-c2ccc(Cl)cc2)n1", "note": "[Pyraclostrobin, pyraclostrobin]", "values": [
      {"measurement": "% CP, % Difference to Untreated", "setting": "corn [1]", "result": "+6.0%"},
      {"measurement": "% Dry Matter, % Difference to Untreated", "setting": "corn [1]", "result": "−2.2", "unit": "%"},
      {"measurement": "crude protein content (% CP)", "setting": "corn [2]; Wisconsin 2006, average of 7 strip trials, 110 g pyraclostrobin per ha", "result": 7.5, "unit": "%"},
      {"measurement": "% CP, % Difference to Untreated", "setting": "corn [2]; [4]", "result": "+4.2%"},
      {"measurement": "Milk (kg/t), % Difference to Untreated", "setting": "corn [2]; [4]", "result": "+14.0%"},
      {"measurement": "Calculated milk production, Milk (kg/t)", "setting": "corn hybrid varieties; Example 4.6, hybrid DS93VT3, Wisconsin 2008", "result": 1600, "unit": "kg/t"},
      {"measurement": "milk production per ton of harvested corn biomass used to produce silage", "setting": "corn hybrid varieties; across the eight tested different corn hybrids, result in words", "result": "improves the milk production"},
      {"measurement": "total digestible nutrients as percent of dry matter (TDN % of DM)", "setting": "corn [3]; Maryland 2006, average of 16 strip trials, 110 g pyraclostrobin per ha", "result": "70.0 % of DM"},
      {"measurement": "crude protein content (% CP)", "setting": "corn [3]; Maryland 2006, average of 16 strip trials, Headline at tassel emergence, 110 g pyraclostrobin per ha", "result": 7.1, "unit": "%"},
      {"measurement": "% CP, % Difference to Untreated", "setting": "corn [3]; [5]", "result": "+6.0%"},
      {"measurement": "% NDF, % Difference to Untreated", "setting": "corn [3]; [5]", "result": "−4.8", "unit": "%"},
      {"measurement": "% NDFD, % Difference to Untreated", "setting": "corn [3]; [5]", "result": "+3.9%"},
      {"measurement": "Milk (kg/t), % Difference to Untreated", "setting": "corn [3]; [5]", "result": "+5.9%"},
      {"measurement": "TDN % of DM, % Difference to Untreated", "setting": "corn [3]; [5]", "result": "+3.6%"}
    ]}
  ]
}
